From patent US20110144056A1, “PYRAZOLE DERIVATIVES USEFUL AS INHIBITORS OF FAAH” (priority 2008, published 2011)

The molecules below were run against T1, FAAH (Rattus norvegicus, UniProt P97612) (assay: FAAH whole cell assay, CHO cells expressing rat FAAH). Conditions: not given.
T1 construct: expressed in transfected cells; cDNA by RT-PCR from brain cDNA (BD Biosciences)
T1 sequence (P97612 1-579): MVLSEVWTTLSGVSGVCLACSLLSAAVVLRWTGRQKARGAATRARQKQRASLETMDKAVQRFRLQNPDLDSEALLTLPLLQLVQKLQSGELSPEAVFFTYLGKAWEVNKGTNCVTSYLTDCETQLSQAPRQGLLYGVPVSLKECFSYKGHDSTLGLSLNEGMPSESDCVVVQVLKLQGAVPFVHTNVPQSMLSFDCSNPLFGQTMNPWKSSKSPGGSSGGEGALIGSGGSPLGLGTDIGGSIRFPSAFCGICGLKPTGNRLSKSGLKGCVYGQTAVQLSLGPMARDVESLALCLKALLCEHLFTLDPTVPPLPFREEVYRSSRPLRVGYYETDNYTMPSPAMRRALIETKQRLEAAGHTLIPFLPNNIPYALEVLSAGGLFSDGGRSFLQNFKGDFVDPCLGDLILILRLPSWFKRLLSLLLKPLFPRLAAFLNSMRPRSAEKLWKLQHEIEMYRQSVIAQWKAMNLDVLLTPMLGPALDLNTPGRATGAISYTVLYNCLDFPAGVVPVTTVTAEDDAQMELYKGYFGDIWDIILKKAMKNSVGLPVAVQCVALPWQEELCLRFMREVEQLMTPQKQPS
Assay type: cell-based
Excerpt: (§1) Murine (accession number NM_010173) and Rat FAAH (accession number NM_024132) was amplified by reverse transcriptase polymerase chain reaction (RT-PCR) from brain cDNA (BD Biosciences, San Jose, Calif.) using primers 1 and 2 or primers 1 and 3 respectively (see Table). The resulting PCR product was ligated into pCR4TOPO and DNA sequence confirmed. The full length murine FAAH was subcloned into the mammalian expression vector, pcDEFneo using either EcoRI (murine) or KpnI and EcoRI (rat) restriction sites. Chinese hamster ovary cells (CHO) were transfected following manufacturers protocol (AMAXA). Forty eight hours post transfection, cells were trypsinized and transferred to 96 well plates in Iscove's DMEM media supplemented with 2 mM Glutamine, 10% fetal calf serum, 1 mg/ml geneticin and HT Supplement (0.1 mM sodium hypoxanthine, 0.016 mM thymidine) in order to isolate single clones. Following selection in geneticin, individual clones were selected and FAAH activity was assessed using a whole cell fluorescent anandamide assay, modified from Ramarao et al (2005). Following removal of tissue culture media cells were dislodged following addition of Cellstripper (Mediatech, Inc. Manassas, Va.) and transferred to 96 well black clear bottom assay plate, centrifuged at 1,000 rpm for 3 mins and media removed and replaced with assay buffer (50 mM Tris pH8.0, 1 mM EDTA, 0.1% fatty acid free BSA). The reaction was initiated by addition of fluorescent substrate, AMC Arachidonoyl Amide (Cayman Chemical, Ann Arbor, Mich.) to 1 μM and reaction allowed to proceed for 2 hours at room temperature. Release of fluorescence was monitored in a CytoFluor Multiplate Reader. Cells expressing the highest amount of FAAH activity were selected for study with FAAH inhibitors.
(§2) Assays are performed on either cell lysate or microsome fractions prepared as described or in whole cell format employing either the fluorescent substrate AAMCA (Cayman chemical, Ann Arbor, Mich.,) or ^3H-anandmaide ([ETHANOLAMINE-1-3H]American Radiolabeled Chemicals; 1 mCi/ml). The cell lysate or microsome assay is performed in Costar black wall, clear bottom plates by adding FAAH_CHO (whole cell, cell lysate or microsome) in assay buffer (50 mM Phosphate, pH 8.0, 1 mM EDTA, 200 mM KCl, 0.2% glycerol, 0.1% fatty acid free BSA) to each well, followed by either DMSO or compound and allowed to incubate at 22-25° C. for fifteen minutes. AAMCA substrate was used to achieve a final concentration of 1 μM and reaction allowed to proceed at room temperature for 1-3 hours. Fluorescent release as a measure of FAAH activity was monitored by reading the plate in a CytoFluor Multiplate Reader ([…]). Whole cell assay is conducted with cells harvested after rinsing tissue culture flasks three times with Ca^++Mg^++ free PBS, incubating for 10 mm in Enzyme free dissociation media and centrifuging for 5 minutes at 1,000 rpm in table top centrifuge. Cells are resuspended in assay buffer at desired cell number in (4×10^4 cells/assay in 96-well format; 1×10^4 cells/assay in 384-well format) and assayed as described.
CC(C)(O)c1cnc(-c2nn(-c3ccc(F)cn3)cc2Sc2ccc(Cl)cc2)cn1 [Example 229, 2-{5-[4-[(4-Chlorophenyl)thio]-1-(5-fluoropyridin-2-yl)-1H-pyrazol-3-yl}pyrazin-2-yl]propan-2-ol] gave an IC50 of 18 nM. O=C(NCCCl)c1ccc(-c2nn(-c3ccccc3)cc2Sc2ccc(Cl)cc2)cc1 [Example 121, N-(2-Chloroethyl)-4-{4-[(4-chlorophenyl)thio]-1-phenyl-1H-pyrazol-3-yl}benzamide] gave an IC50 of 52 nM.

Each molecule was assayed against T2, FAAH (Homo sapiens, UniProt O00519) (assay: FAAH enzyme assay, lysate of CHO cells expressing human FAAH). Conditions: CHO cell lysate, read-out: Human Lysate.
T2 construct: The full length FAAH was subcloned into the mammalian expression vector, pcDEF.neo; expressed in transfected cells; cDNA from Origene
T2 sequence (O00519 1-579): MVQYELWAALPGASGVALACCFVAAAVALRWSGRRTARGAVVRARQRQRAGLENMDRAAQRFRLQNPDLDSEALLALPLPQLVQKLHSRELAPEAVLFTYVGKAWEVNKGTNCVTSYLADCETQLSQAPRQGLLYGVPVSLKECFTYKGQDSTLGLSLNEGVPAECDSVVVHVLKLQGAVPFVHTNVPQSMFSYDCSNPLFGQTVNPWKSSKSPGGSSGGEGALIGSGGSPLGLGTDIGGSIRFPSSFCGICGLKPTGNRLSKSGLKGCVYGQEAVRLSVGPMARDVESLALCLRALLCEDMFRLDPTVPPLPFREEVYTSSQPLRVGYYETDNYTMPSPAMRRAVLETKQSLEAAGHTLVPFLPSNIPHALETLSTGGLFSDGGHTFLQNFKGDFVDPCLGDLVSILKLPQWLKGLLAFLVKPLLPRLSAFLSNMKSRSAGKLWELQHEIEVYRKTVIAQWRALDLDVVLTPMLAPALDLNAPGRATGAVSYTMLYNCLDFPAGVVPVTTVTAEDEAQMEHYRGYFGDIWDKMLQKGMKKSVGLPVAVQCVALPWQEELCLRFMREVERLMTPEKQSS
Assay type: biochemical
Excerpt: (§3) To assist in assay development stable cell lines for human, murine and rat full length FAAH were developed. Human FAAH cDNA (Accession No: NM_001441.1) was purchased from Origene (Rockville, Md.). The full length FAAH was subcloned into the mammalian expression vector, pcDEF.neo, using XbaI and […] restriction sites and used for stable cell line generation.
CHO cells expressing FAAH were used to prepare either crude cell lysate or microsome fractions. To harvest cells, tissue culture media was decanted, the monolayer washed three times with Ca^++Mg^++ free PBS and cells recovered after 15 min in enzyme free dissociation media (Millipore Corp, Billerica, Mass.). Cells were collected by centrifuging at 2000 rpm for 15 min. and the cell pellet re-suspended with 50 mM HEPES (pH 7.4) containing 1 mM EDTA and the protease inhibitors aprotinin (1 mg/ml) and leupeptin (100 μM). The suspension was sonicated at 4° C. and the cell lysate recovered after centrifuging at 12,000×g (14,600 rpm, SS34 rotor) for 20 min at 4° C. to form a crude pellet of cell debris, nuclei, peroxisomes, lysosomes, and mitochondria; the supernatant or cell lysate was used for FAAH enzyme assay. In some cases, microsomes fractions enriched in FAAH were prepared by centrifuging the cell lysate further at 27,000 rpm (100,000×g) in SW28 rotor for 50 minutes at 4° C. The pellet containing FAAH-enriched microsomes was re-suspend in 50 mM HEPES, (pH 7.4) 1 mM EDTA, and any remaining DNA sheared by passage of material through a 23 gauge needle and aliquots of enzyme were store at −80° C. prior to use.
(American Radiolabeled Chemicals; 1 mCi/ml) with FAAH (Life Sciences (1995), 56, 1999-2005 and Journal of Pharmacology and Experimented Therapeutics (1997), 283, 729-734), Analytical. Biochemistry (2003), 318, 270-5. In addition, routine assays were performed monitoring hydrolysis of arachidonyl-7-amino-4-methylcoumarin amide (AAMCA) by following increase in fluorescence upon release of 7-amino 4-methyl coumarin (λEX=355 nm, (λEM=460 nm). Analytical. Biochemistry (2005). 343, 143-51.
as §2
Alternatively, assays are performed using anandamide [ethanolamine 1-^3H] (specific activity of 10 Ci/mmol) diluted with cold anandamide to achieve a final assay concentration of 1 μM anandamide (˜50,000 cpm). Enzyme (CHO cell lysate, brain or liver homogenate) is incubated in assay buffer (50 mM Phosphate, pH 8.0, 1 mM EDTA, 200 mM KCl, 0.2% glycerol, 0.1% fatty acid free BSA) with inhibitor at 25° C. for 30 minutes. The reaction was terminated by addition of 2 volumes of chloroform:methanol (1:1) and mixed by vortexing. […]
CC(C)(O)c1cnc(-c2nn(-c3ccc(F)cn3)cc2Sc2ccc(Cl)cc2)cn1 [Example 229, 2-{5-[4-[(4-Chlorophenyl)thio]-1-(5-fluoropyridin-2-yl)-1H-pyrazol-3-yl}pyrazin-2-yl]propan-2-ol] gave an IC50 of 26 nM. O=C(NCCCl)c1ccc(-c2nn(-c3ccccc3)cc2Sc2ccc(Cl)cc2)cc1 [Example 121, N-(2-Chloroethyl)-4-{4-[(4-chlorophenyl)thio]-1-phenyl-1H-pyrazol-3-yl}benzamide] showed an IC50 of 80 nM.

Same assay, conditions: cell lysate, read-out: FAAH Human Cell Lysate IC50
CCN1CCc2cc(-c3nn(-c4ccccn4)cc3Sc3ccc(Cl)cc3)ccc2C1=O [Example 338] showed an IC50 of 6 nM. CCN1CCc2cc(-c3nn(-c4ccc(F)cc4)cc3Sc3ccc(Cl)cc3)ccc2C1=O [Example 309, 6-{4-[(4-chlorophenyl)sulfanyl]-1-(4-fluorophenyl)-1H-pyrazol-3-yl}-2-ethyl-3,4-dihydroisoquinolin-1(2H)-one] was tested, and the IC50 was 16 nM. Cn1cc(Sc2ccc(Cl)cc2)c(-c2ccc3nc(C#N)ccc3c2)n1 [Example 364] gave an IC50 of 131 nM. For CC(=O)N1CCc2cc(-c3nn(CCF)cc3Sc3ccc(Cl)cc3)ccc2C1 [Example 362], the IC50 was 48 nM. FC(F)c1ccc2cc(-c3n[nH]cc3Sc3ccc(Cl)cn3)ccc2n1 [Example 332] was tested, and the IC50 was 268 nM. With CCOC(=O)c1ccc2cc(-c3n[nH]cc3Sc3ccc(Cl)cc3)ccc2n1 [Example 354] the IC50 was 0.93 nM. With CCN1CCc2cc(-c3nn(CC)cc3Sc3ccc(Cl)cc3)ccc2C1=O [Example 340] the IC50 was 25 nM. Molecule CC(C)(O)c1ccc(-c2nn(-c3ccc(F)cn3)cc2Sc2ccc(Cl)cn2)nn1 [Example 350] has an IC50 of 103 nM. CCn1cc(-n2cc(Sc3ccc(Cl)cc3)c(-c3ccc4c(c3)CCNC4=O)n2)cn1 [Example 344] gave an IC50 of 16 nM. With O=c1[nH]cnc2cc(-c3nn(C4CC4)cc3Sc3ccc(Cl)cc3)ccc12 [Example 315, 7-{4-[(4-chlorophenyl)sulfanyl]-1-cyclopropyl-1H-pyrazol-3-yl}quinazolin-4(3H)-one] the IC50 was 86 nM. CC(=O)N1CCc2cc(-c3nn(C4CC4)cc3Sc3ccc(Cl)cc3)ccc2C1 [Example 360] gave an IC50 of 9.8 nM. In the case of CCNC(=O)c1cnc2cc(-c3nn(CCF)cc3Sc3ccc(Cl)cc3)cnc2c1 [Example 392], the IC50 is reported as 47 nM. Cc1ccc2cc(-c3n[nH]cc3Sc3ccc(Cl)cc3)ccc2n1 [Example 385] gave an IC50 of 192 nM. With Cc1ccc2cc(-c3nn(C4CC4)cc3Sc3ccc(Cl)cc3)ccc2n1 [Example 384] the IC50 was 18 nM. CCOC(=O)c1cnc2cc(-c3n[nH]cc3Sc3ccc(Cl)cc3)cnc2c1 [Example 387] showed an IC50 of 14 nM. Molecule CC(C)(O)c1ccc(-c2nn(-c3cnn(C4CC4)c3)cc2Sc2ccc(Cl)cc2)nn1 [Example 351] has an IC50 of 246 nM. With FC(F)c1ccc2cc(-c3nn(-c4ccccn4)cc3Sc3ccc(Cl)cc3)ccc2n1 [Example 379] the IC50 was 4.9 nM. In the case of CCOC(=O)c1ccc2cc(-c3nn(C)cc3Sc3ccc(Cl)cc3)ccc2n1 [Example 352], the IC50 is reported as 2.2 nM. Work on O=C1NCCc2cc(-c3n[nH]cc3Sc3ccc(Cl)cc3)ccc21 [Example 310, 6-{4-[(4-chlorophenyl)sulfanyl]-1H-pyrazol-3-yl}-3,4-dihydroisoquinolin-1(2H)-one] yielded an IC50 of 72 nM. FC(F)c1ccc2cc(-c3nn(C4CC4)cc3Sc3ccc(Cl)cc3)ccc2n1 [Example 381] gave an IC50 of 9.5 nM. OC(c1ccc2cc(-c3nn(CCF)cc3Sc3ccc(Cl)cc3)ccc2n1)C(F)(F)F (centres unmarked) [Example 373] showed an IC50 of 49 nM.

The molecules below were run against T2, FAAH (assay: FAAH whole cell assay, CHO cells expressing human FAAH). Conditions: read-out: FAAH Human Whole Cell IC50.
Assay type: cell-based
Excerpt: as §3, §1, §2
Molecule CC(=O)N1CCc2cc(-c3c(Sc4ccc(Cl)cc4)cnn3C3CCCCO3)ccc2C1 (centres unmarked) [Example 404] has an IC50 of 25 nM. In the case of CC(C)(O)c1ccc2cc(-c3c(Sc4ccc(Cl)cc4)cnn3C3CCCCO3)ccc2n1 (centres unmarked) [Example 403], the IC50 is reported as 63 nM. CCNC(=O)c1ccc2cc(-c3c(Sc4ccc(Cl)cc4)cnn3C3CCCCO3)ccc2n1 (centres unmarked) [Example 402] was tested, and the IC50 was 9.1 nM. Work on N#Cc1ccc2cc(-c3c(Sc4ccc(Cl)cc4)cnn3C3CCCCO3)ccc2n1 (centres unmarked) [Example 405] yielded an IC50 of 35 nM. CCOC(=O)c1cnc2cc(-c3c(Sc4ccc(Cl)cc4)cnn3C3CCCCO3)ccc2c1 (centres unmarked) [Example 407] was tested, and the IC50 was 1.94 nM.

Same assay, conditions: read-out: Human whole cell
With CC(C)(O)c1cnc(-c2nn(-c3ccc(F)cn3)cc2Sc2ccc(Cl)cc2)cn1 [Example 229, 2-{5-[4-[(4-Chlorophenyl)thio]-1-(5-fluoropyridin-2-yl)-1H-pyrazol-3-yl}pyrazin-2-yl]propan-2-ol] the IC50 was 66 nM. With O=C(NCCCl)c1ccc(-c2nn(-c3ccccc3)cc2Sc2ccc(Cl)cc2)cc1 [Example 121, N-(2-Chloroethyl)-4-{4-[(4-chlorophenyl)thio]-1-phenyl-1H-pyrazol-3-yl}benzamide] the IC50 was 124 nM.
